24 compounds from patent publication US4350697A, “Antidepressant and neuroleptic benzothiopyrano [2,3-c]-pyridines” (Roussel Uclaf, priority 1980, dated 1982) can be followed below.

Structures can show the parent of a compound that is named as a salt.

For test [1], the target named is neuroleptic receptors (frontal cortex membranes, major serotonergic component). The test is described as follows: [3H] spiroperidol receptor binding displacement on frontal cortex membranes (test A). The note with it: [3H] spiroperidol 0.19 nM, rat frontal cortex membranes, 37° C., 10 minutes. An excerpt:
A. [^3 H] Spiroperidol binding to neuroleptic receptors in membranes prepared from the striatum and frontal cortex of rats
The binding of [^3 H] spiroperidol to frontal cortex membranes appears to entail a major serotonergic component, whereas in striatal membranes the binding is predominantly dopaminergic [Leysen et al, Nature Vol. 272 (1978) p. 168-171] The ability of drugs to displace this radioligand from the frontal cortical receptors matches their activity in other models of serotonergic function, both for agonists and antagonists. Likewise, in striatal membranes, such activities predict the antidopaminergic action of neuroleptic drugs.
[Phenyl-4(n)-^3 H] spiroperidol (Radiochemical Centre, TRK 570 21 Ci/mmol was used as the labelled ligand supplied as a 250 μCi/250 μl solution in ethanol and this solution was diluted 3.2/10,000 in assay buffer and 0.1 ml of this was added to 2 ml of binding assay.
=0.19 nM [^3 H] spiroperidol
The assay buffer was a modified 50 mM Tris HCl buffer with a pH of 7.6 and containing 120 mM of sodium chloride, 5 mM of potassium chloride, 1 mM of magnesium chloride, 2 mM of calcium chloride, 10 μM of pargyline and 0.1% of ascorbic acid.
The membrane preparation involved dissecting the frontal cortices or striata from 4 male CFHB rats according to J. Glowinski et al [Eur. J. Pharmacol., Vol. 49, (1978), P. 201-202]. The frontal cortex was taken as that cortical tissue in `C`, dorsal to a horizontal reference line passing through the point where the olfactory bulbs join the frontal cortex. The animals were killed by cervical dislocation and the dissected tissue was homogenized in 20 volumes of ice cold 0.32 M sucrose with a Teflon/glass homogeniser. The homogenate was centrifuged at 1000 g for 10 minutes and the resulting supernatant was recentrifuged at 30,000 g for 30 minutes. The supernatant was discarded and the pellet was resuspended by homogenization in 30 volumes of ice cold assay buffer.
Non-specific binding was accounted for by the inclusion of 1 μM (+) butaclamol in blank binding assays and this required a stock solution of 20 μM in distilled water. Solutions of displacing compounds were prepared at 20x final assay concentration in distilled water.
Binding assays of 1.3 ml assay buffer, 0.5 ml membrane suspension, 0.1 ml distilled H2 O or drug solutions and 0.1 ml [^3 H] spiroperidol dilution were made up in ice with the [^3 H] spiroperidol being added last and incubated at 37° C. for 10 minutes. The bound ligand was separated by filtration through Whatman GF/C filters under vacuum followed by 2×10 ml rinses of ice cold assay buffer. The filters were dried at 80° C. and counted in 5 ml volumes of ECONOFLUOR (NEN). All binding assays, controls, blanks and each displacer concentration were run in triplicate. The [^3 H] spiroperidol receptor binding displacement results on frontal cortex membranes (test A) and on striatal membranes (test B) are given in Table III below and the results are expressed as IC50 (nM).

In a further test the target is α-noradrenergic receptor. The test is described as follows: [3H] WB-4101 receptor binding displacement, rat cortical membranes (test C). Particulars: [3H] WB-4101 0.25 nM, 25° C., 15 minutes.
For test [2], the target named is Muscarinic chloinergic receptor. The test is classed as binding. Particulars: [3H] QNB 0.3 nM, rat forebrain membranes, 25° C., 1 hour; read-out: IC50 test D.
The test system of test [3] is hypothermia induced by apomorphine. The test is described as follows: Reversal of apomorphine hypothermia in mice (test E). The test is classed as in vivo. The note with it: Mus musculus, ip; male CD/l mice, test drug i.p. 30 minutes before apomorphine hydrochloride 16 mg/kg s.c.; rectal temperature 30 minutes later; read-out: ED50 for the reversal of the hypothermia induced by apomorphine HCl in mice (test E). On the procedure:
D. Reversal of apomorphine hypothermia in mice
Whereas the reversal of the hypothermia induced in mice by low doses of apomorphine is a characteristic of classical neuroleptic agents, the hypothermia induced by high doses of this agent is specifically reversed by antidepressant drugs [Puech et al., In `Advances in Pharmacology and Therapeutics Vol., 5` ed. Dumont, c. Pergamon p. 171-176 (1979)]. Groups of 10 male CD/l mice (16-22 g) were dosed with vehicle or test drug intraperitoneally 30 minutes prior to the subcutaneously injection of apomorphine hydrochloride at 16 mg/kg. The rectal temperatures were recorded 30 minutes later using a rectal thermometer with digital readout.

Consider `CN1CCC2=C(c3ccc(Cl)c(Cl)c3)c3ccccc3SC2C1` (stereo not drawn) [Example 8], for which the IC50 – broadly, the concentration that gives 50% inhibition – in test [1] was 537 nM; on α-noradrenergic receptor, 631 nM; in test [2] it was above 100 µM.

Turning to `Cc1cccc(C)c1C1=C2CCN(C)CC2Sc2ccccc21` (stereo not drawn) [Example 23], the IC50 in test [1] was found to be 331 nM; at α-noradrenergic receptor it was 617 nM; in test [2], 4.37 µM. The ED50 – broadly, the dose at which the effect has come halfway, by size or by number of responders – in test [3] was above 40 mg/kg.

Take `Cc1ccccc1C1=C2CCN(C)CC2Sc2ccccc21` (stereo not drawn) [Example 10]: the concentration for half-maximal inhibition (IC50) in test [1] amounted to 105 nM; at α-noradrenergic receptor, 813 nM; in test [2] it was 8.13 µM. Besides, in test [3], the ED50 was determined as 80 mg/kg.

`CN1CCC2=C(c3cccc(Cl)c3)c3ccccc3SC2C1` (stereo not drawn) [Example 5]: the values for the IC50 (in test [1]; at α-noradrenergic receptor; in test [2]) were 427 nM, 1950 nM and 16.2 µM, respectively. Besides, in test [3], the ED50 is above 40 mg/kg.

As to `CN1CCC2=C(c3ccccc3)c3ccccc3SC2C1.Cl` (stereo not drawn) [Example 1, 2-methyl-5-phenyl-1,3,4,10a-tetrahydro-2H-[1]-benzothiopyrano[2,3-c]pyridine hydrochloride], the values for the IC50 (in test [1]; on α-noradrenergic receptor; in test [2]) were 250 nM, 394 nM and 14 µM, respectively. For the same compound, the ED50 in test [3] came out at 30 mg/kg.

`Cc1ccc2c(c1)C(c1ccccc1)=C1CCN(C)CC1S2` (stereo not drawn) [Example 22]: the values for the IC50 (in test [1]; at α-noradrenergic receptor; in test [2]) were 2450 nM, 12500 nM and above 100 µM, respectively. Also, in test [3], the ED50 was above 100 mg/kg.

With `Cc1cccc(C2=C3CCN(C)CC3Sc3ccccc32)c1` (stereo not drawn) [Example 7], the IC50 is 251 nM in test [1], 813 nM at α-noradrenergic receptor and 8.71 µM in test [2]. Besides, the ED50 in test [3] was above 40 mg/kg.

With `CCCOc1ccc(C2=C3CCN(C)CC3Sc3ccccc32)cc1` (stereo not drawn) [Example 11], the half-inhibitory concentration (IC50) in test [1] was 1250 nM; on α-noradrenergic receptor, 6760 nM; in test [2] it was above 100 µM. Further, the ED50 in test [3] turned out to be 22 mg/kg.

On to `COc1ccc(C2=C3CCN(C)CC3Sc3ccccc32)cc1` (stereo not drawn) [Example 4], for which the figures for the IC50 (in test [1]; on α-noradrenergic receptor; in test [2]) were 131 nM, 120 nM and 62 µM, respectively. The ED50 in test [3] was 15 mg/kg.

Turning to `Cc1ccc2c(c1)SC1CN(C)CCC1=C2c1ccccc1` (stereo not drawn) [Example 16], the values for the IC50 (in test [1]; on α-noradrenergic receptor; in test [2]) were 708 nM, 1450 nM and 29.5 µM, respectively.

Take `CN1CCC2=C(c3ccccc3)c3ccc(Cl)cc3SC2C1` (stereo not drawn) [Example 21]: the IC50 in test [1] came out at 1140 nM; on α-noradrenergic receptor it was 3020 nM; in test [2] it was 58.9 µM. Further, the ED50 in test [3] was above 100 mg/kg.

As for `Cc1ccc(C2=C3CCN(C)CC3Sc3ccccc32)cc1C` (stereo not drawn) [Example 14], the IC50 was 155 nM in test [1], 502 nM on α-noradrenergic receptor and above 100 µM in test [2]. The ED50 in test [3] was 30 mg/kg.

Take `CCc1ccc(C2=C3CCN(C)CC3Sc3ccccc32)cc1` (stereo not drawn) [Example 9]: the IC50 in test [1] was 50 nM; on α-noradrenergic receptor it was 59 nM; in test [2], above 100 µM. Besides, the ED50 in test [3] was above 40 mg/kg.

Regarding `Cc1ccc(C2=C3CCN(C)CC3Sc3ccccc32)cc1` (stereo not drawn) [Example 3, 2-methyl-5-(4-tolyl)-1,3,4,10a-tetrahydro-2H[1]benzothiopyrano[2,3-c]pyridine], the IC50 worked out at 25 nM in test [1], 29 nM at α-noradrenergic receptor and 73.6 µM in test [2]. In test [3], the ED50 came out at 20 mg/kg.

Consider `CCN1CCC2=C(c3ccccc3)c3ccccc3SC2C1` (stereo not drawn) [Example 12], for which the results for the IC50 (in test [1]; on α-noradrenergic receptor; in test [2]) were 398 nM, 502 nM and 19 µM, respectively.

As for `Cc1cccc2c1SC1CN(C)CCC1=C2c1ccccc1` (stereo not drawn) [Example 18], the half-inhibitory concentration (IC50) came out at 174 nM in test [1], 794 nM on α-noradrenergic receptor and 38.9 µM in test [2]. For the same compound, the ED50 in test [3] was above 40 mg/kg.

Turning to `CN1CCC2=C(c3ccc(N)cc3)c3ccccc3SC2C1.Cl` (stereo not drawn) [Example 15, 5-(4-aminophenyl)-2-methyl-1,3,4,10a-tetrahydro-2H-[1]benzothiopyrano[2,3-c]pyridine hydrochloride], the IC50 in test [1] stood at 158 nM; on α-noradrenergic receptor, 372 nM; in test [2], 7.94 µM. Also, the ED50 in test [3] was 5 mg/kg.

As to `Cc1cc(C)c(C2=C3CCN(C)CC3Sc3ccccc32)c(C)c1` (stereo not drawn) [Example 24], the figures for the IC50 (in test [1]; on α-noradrenergic receptor; in test [2]) were 308 nM, 617 nM and 1.18 µM, respectively. Further, the ED50 in test [3] was above 40 mg/kg.

As to `CN1CCC2=C(c3ccc(Cl)cc3)c3ccccc3SC2C1` (stereo not drawn) [Example 2], the IC50 in test [1] is 602 nM; at α-noradrenergic receptor, 692 nM; in test [2], above 100 µM. Moreover, in test [3], the ED50 was above 40 mg/kg.

For `CN1CCC2=C(c3ccccc3)c3cccc(Cl)c3SC2C1` (stereo not drawn) [Example 20], the results for the IC50 (in test [1]; on α-noradrenergic receptor; in test [2]) were 304 nM, 1050 nM and 67.8 µM, respectively.

Take `Cc1ccc(C2=C3CCN(C)CC3Sc3ccccc32)c(C)c1` (stereo not drawn) [Example 19, 2-methyl-5-(2,4-dimethylphenyl)-1,3,4,10a-tetrahydro-2H-[1]benzothiopyrano[2,3-c]pyridine hydrochloride]: the IC50 in test [1] was 32 nM; on α-noradrenergic receptor it was 23 nM; in test [2], 42.7 µM.

Turning to `CN1CCC2=C(c3ccccc3)c3cc(Cl)ccc3SC2C1` (stereo not drawn) [Example 13], the IC50 stood at 1480 nM in test [1], 355 nM on α-noradrenergic receptor and 47.9 µM in test [2]. Also, the ED50 in test [3] was above 40 mg/kg.

Take `CN1CCC2=C(c3ccc(N(C)C)cc3)c3ccccc3SC2C1` (stereo not drawn) [Example 6, 2-methyl-5-(4-dimethylaminophenyl)-1,3,4,10a-tetrahydro-2H[1]benzothiopyrano[2,3-c]pyridine]: the IC50 in test [1] is 112 nM; at α-noradrenergic receptor it was 100 nM; in test [2], above 100 µM.

As to `c1ccc(C2=C3CCNCC3Sc3ccccc32)cc1` (stereo not drawn) [Example 17], the half-inhibitory concentration (IC50) in test [1] is 624 nM; on α-noradrenergic receptor it was 676 nM; in test [2] it was 19.5 µM. Moreover, the ED50 in test [3] amounted to 35 mg/kg.
